Active and inactive are the calls of the source.
How the values were obtained:
Midasin = Midasin (Homo sapiens, UniProt Q9NU22)
[1] = molecular target: Platelet-derived growth factor receptor beta (Homo sapiens, UniProt P09619)
[2] = molecular target: T1, Ras-related protein Rab-10 (Homo sapiens, UniProt P61026)
T1 sequence (P61026 whole entry): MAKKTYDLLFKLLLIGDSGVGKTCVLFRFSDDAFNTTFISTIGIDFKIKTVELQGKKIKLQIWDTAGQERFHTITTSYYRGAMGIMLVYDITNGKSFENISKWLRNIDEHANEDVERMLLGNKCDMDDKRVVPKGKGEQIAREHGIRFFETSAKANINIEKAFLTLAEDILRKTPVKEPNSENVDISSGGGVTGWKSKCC

[3] = molecular target: T2, Serine/threonine-protein kinase NLK (Homo sapiens, UniProt Q9UBE8)
T2 sequence (Q9UBE8 whole entry): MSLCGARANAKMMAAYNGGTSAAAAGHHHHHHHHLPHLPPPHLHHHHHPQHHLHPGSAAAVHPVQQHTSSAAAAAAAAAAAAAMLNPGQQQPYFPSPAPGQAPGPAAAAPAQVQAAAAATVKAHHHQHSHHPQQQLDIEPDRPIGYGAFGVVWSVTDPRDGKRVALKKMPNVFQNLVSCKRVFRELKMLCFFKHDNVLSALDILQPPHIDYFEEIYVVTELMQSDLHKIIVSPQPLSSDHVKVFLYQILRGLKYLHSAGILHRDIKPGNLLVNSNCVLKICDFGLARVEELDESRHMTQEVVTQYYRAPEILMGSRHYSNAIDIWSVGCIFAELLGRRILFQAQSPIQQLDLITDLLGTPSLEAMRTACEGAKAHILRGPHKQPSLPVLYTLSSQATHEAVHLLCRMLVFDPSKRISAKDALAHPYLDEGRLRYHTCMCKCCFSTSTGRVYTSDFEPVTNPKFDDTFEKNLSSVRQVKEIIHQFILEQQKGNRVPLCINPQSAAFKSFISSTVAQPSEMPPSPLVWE

[4] = molecular target: T3, Serine/threonine-protein kinase A-Raf (Homo sapiens, UniProt P10398)
T3 sequence (P10398 whole entry): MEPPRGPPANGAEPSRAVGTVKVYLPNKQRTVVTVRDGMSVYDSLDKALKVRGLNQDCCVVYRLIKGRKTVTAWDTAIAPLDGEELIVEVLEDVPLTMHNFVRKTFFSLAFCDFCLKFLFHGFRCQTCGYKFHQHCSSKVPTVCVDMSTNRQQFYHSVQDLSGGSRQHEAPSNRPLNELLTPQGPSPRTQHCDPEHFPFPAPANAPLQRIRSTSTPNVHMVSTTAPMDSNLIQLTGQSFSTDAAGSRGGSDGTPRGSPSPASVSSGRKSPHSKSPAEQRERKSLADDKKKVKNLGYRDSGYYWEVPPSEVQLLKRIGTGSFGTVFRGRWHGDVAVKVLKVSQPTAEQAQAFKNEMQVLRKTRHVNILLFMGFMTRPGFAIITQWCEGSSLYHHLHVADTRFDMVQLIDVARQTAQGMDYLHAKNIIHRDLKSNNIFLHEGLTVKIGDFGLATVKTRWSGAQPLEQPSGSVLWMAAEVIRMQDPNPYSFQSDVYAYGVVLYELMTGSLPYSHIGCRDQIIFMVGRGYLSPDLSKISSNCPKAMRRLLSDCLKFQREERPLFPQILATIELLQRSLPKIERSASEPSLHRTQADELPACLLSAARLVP

[5] = molecular target: S-adenosylmethionine synthase isoform type-2 (Homo sapiens, UniProt P31153)
S-adenosylmethionine synthase isoform type-2, sequence (P31153 whole entry, canonical isoform): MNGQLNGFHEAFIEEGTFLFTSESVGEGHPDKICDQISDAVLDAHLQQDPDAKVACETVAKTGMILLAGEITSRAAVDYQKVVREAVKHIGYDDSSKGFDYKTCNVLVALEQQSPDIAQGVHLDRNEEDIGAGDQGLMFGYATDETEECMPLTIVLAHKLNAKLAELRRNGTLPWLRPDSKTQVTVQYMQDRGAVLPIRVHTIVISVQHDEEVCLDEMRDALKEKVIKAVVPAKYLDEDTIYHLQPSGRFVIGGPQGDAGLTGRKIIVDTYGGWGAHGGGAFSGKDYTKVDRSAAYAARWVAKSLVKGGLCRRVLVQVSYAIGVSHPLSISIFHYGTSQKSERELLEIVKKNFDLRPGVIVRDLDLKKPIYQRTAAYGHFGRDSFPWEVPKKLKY

[6] = molecular target: T4, Dynamin-like GTPase OPA1, mitochondrial (Homo sapiens, UniProt O60313)
T4 sequence (O60313 whole entry): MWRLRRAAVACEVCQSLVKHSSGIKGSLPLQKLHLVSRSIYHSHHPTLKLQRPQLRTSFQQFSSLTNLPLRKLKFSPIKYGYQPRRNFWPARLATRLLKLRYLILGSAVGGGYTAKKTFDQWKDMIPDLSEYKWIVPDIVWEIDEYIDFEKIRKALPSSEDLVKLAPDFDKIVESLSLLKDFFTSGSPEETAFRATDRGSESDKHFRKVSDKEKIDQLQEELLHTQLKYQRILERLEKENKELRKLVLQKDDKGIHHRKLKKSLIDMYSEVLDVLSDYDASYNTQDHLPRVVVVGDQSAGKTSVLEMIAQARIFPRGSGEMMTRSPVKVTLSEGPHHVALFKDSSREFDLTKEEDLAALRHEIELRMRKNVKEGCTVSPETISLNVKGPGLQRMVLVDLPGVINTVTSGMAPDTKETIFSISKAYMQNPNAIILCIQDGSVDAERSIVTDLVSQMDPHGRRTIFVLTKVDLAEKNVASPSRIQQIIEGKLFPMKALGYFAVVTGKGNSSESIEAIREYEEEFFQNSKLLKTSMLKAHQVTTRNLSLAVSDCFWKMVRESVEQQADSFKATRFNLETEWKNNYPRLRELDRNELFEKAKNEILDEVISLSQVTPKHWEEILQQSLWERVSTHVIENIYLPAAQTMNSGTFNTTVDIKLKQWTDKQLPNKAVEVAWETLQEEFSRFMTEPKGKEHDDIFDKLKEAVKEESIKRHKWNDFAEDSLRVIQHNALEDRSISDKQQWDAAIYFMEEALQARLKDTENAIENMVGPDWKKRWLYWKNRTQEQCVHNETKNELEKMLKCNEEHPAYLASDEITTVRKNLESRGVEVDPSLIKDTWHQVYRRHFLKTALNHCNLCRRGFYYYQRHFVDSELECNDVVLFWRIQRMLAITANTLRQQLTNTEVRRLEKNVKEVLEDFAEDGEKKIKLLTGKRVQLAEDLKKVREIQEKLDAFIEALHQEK

[7] = molecular target: Protein kinase C alpha type (Homo sapiens, UniProt P17252)
LIM domain kinase 1 = LIM domain kinase 1 (Homo sapiens, UniProt P53667)
LIM domain kinase 1, sequence (P53667 whole entry, the tested form may be a part): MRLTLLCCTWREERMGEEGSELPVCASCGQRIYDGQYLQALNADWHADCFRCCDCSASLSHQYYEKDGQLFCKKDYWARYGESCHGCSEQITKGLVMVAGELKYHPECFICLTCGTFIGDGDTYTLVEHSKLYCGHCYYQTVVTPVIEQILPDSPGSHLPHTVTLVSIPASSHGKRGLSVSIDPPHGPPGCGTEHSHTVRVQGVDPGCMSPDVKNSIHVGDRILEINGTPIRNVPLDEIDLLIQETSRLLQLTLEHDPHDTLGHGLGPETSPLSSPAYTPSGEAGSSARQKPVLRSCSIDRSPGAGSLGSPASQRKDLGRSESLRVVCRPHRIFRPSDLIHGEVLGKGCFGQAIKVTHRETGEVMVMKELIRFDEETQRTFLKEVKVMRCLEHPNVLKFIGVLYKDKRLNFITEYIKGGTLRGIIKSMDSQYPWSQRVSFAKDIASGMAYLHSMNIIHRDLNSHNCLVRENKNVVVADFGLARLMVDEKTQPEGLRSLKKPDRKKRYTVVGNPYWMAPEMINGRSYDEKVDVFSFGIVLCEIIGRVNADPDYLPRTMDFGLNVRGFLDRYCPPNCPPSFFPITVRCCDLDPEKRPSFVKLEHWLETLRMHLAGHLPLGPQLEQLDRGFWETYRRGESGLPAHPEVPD

Measured: Kd
Note: in the data inactive means no Kd found up to 30 µM.

Platelet-derived growth factor receptor beta, sequence (P09619 whole entry): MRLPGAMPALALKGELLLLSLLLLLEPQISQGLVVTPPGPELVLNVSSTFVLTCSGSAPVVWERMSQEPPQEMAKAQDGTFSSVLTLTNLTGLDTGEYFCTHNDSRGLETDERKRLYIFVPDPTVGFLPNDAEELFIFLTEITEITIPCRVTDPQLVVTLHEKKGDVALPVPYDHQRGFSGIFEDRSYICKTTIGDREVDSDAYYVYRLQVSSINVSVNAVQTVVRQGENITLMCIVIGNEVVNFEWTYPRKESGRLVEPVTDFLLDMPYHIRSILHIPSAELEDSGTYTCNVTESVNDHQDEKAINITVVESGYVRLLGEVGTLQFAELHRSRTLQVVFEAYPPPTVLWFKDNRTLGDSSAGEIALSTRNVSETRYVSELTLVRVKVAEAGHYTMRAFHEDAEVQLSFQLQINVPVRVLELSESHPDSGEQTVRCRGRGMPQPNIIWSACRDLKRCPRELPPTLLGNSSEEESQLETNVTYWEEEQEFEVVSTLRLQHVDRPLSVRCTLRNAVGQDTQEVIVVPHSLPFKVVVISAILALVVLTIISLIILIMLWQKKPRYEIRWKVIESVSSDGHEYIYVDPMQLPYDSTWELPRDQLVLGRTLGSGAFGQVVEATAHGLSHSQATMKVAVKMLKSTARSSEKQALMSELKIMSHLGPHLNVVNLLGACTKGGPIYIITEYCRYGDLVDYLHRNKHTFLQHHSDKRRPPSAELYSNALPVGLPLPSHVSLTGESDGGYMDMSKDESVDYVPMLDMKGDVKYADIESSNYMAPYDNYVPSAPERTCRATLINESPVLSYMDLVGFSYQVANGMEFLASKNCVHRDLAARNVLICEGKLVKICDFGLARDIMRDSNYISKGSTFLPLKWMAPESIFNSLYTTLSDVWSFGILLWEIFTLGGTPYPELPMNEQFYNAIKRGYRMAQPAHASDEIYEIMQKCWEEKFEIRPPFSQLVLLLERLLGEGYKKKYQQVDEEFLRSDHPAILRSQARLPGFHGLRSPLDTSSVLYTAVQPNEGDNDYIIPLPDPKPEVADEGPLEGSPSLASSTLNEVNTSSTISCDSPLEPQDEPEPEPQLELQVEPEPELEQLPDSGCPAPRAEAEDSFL

C=CCn1c(=O)c2cnc(Nc3ccc(N4CCN(C)CC4)cc3)nc2n1-c1cccc(C(C)(C)O)n1 [ADAVOSERTIB]
inactive: Midasin > 30 µM | [1] > 30 µM | [2] > 30 µM | [3] > 30 µM | [4] > 30 µM | [5] > 30 µM | [6] > 30 µM | [7] > 30 µM

CC1(C)CNc2cc(NC(=O)c3cccnc3NCc3ccncc3)ccc21 [MOTESANIB]
inactive: Midasin > 30 µM | [2] > 30 µM | [4] > 30 µM | [5] > 30 µM | [6] > 30 µM | [7] > 30 µM

CC1(COc2ccc3c(c2)ncn3-c2ccc3cccc(N4CCC(N)CC4)c3n2)COC1 [CRENOLANIB]
inactive: Midasin > 30 µM | [2] > 30 µM | [3] > 30 µM | [4] > 30 µM | [5] > 30 µM | LIM domain kinase 1 > 30 µM | [6] > 30 µM | [7] > 30 µM

COc1cc2c(N3CCN(C(=O)Nc4ccc(OC(C)C)cc4)CC3)ncnc2cc1OCCCN1CCCCC1 [TANDUTINIB]
inactive: Midasin > 30 µM | [2] > 30 µM | [4] > 30 µM | [5] > 30 µM | [6] > 30 µM | [7] > 30 µM

O=S(=O)(c1cccc2cnccc12)N1CCCNCC1 [FASUDIL]
inactive: Midasin > 30 µM | [1] > 30 µM | [2] > 30 µM | [3] > 30 µM | [4] > 30 µM | [5] > 30 µM | [6] > 30 µM | [7] > 30 µM

NC(=O)c1ccc(N(C(N)=O)c2c(F)cccc2F)nc1-c1ccc(F)cc1F [VX-702]
inactive: Midasin > 30 µM | [1] > 30 µM | [2] > 30 µM | [4] > 30 µM | [5] > 30 µM | LIM domain kinase 1 > 30 µM | [6] > 30 µM | [7] > 30 µM

Cc1cc(C(=O)Nc2cc(Oc3ccc4nc(NC(=O)C5CC5)cn4n3)ccc2C)n(C)n1 [TAK-593]
inactive: Midasin > 30 µM | [2] > 30 µM | [3] > 30 µM | [4] > 30 µM | LIM domain kinase 1 > 30 µM | [6] > 30 µM | [7] > 30 µM

CCN(CCCOc1ccc2c(Nc3cc(CC(=O)Nc4cccc(F)c4)n[nH]3)ncnc2c1)CCOP(=O)(O)O [BARASERTIB]
inactive: Midasin > 30 µM | [2] > 30 µM | [3] > 30 µM | [5] > 30 µM | [6] > 30 µM | [7] > 30 µM

CN(C)C/C=C/C(=O)Nc1cc2c(Nc3ccc(F)c(Cl)c3)ncnc2cc1O[C@H]1CCOC1 [AFATINIB]
inactive: Midasin > 30 µM | [2] > 30 µM | [4] > 30 µM | [5] > 30 µM | [6] > 30 µM | [7] > 30 µM

Cn1cnc2c(F)c(Nc3ccc(Br)cc3Cl)c(C(=O)NOCCO)cc21 [SELUMETINIB]
inactive: Midasin > 30 µM | [2] > 30 µM | [4] > 30 µM | [5] > 30 µM | [6] > 30 µM | [7] > 30 µM

Cn1c(=O)n(-c2ccc(C(C)(C)C#N)cc2)c2c3cc(-c4cnc5ccccc5c4)ccc3ncc21 [DACTOLISIB]
inactive: Midasin > 30 µM | [2] > 30 µM | [3] > 30 µM | [4] > 30 µM | [5] > 30 µM | [6] > 30 µM | [7] > 30 µM

CN1CCN(c2nc(C3=C(c4c[nH]c5ccccc45)C(=O)NC3=O)c3ccccc3n2)CC1 [SOTRASTAURIN]
inactive: Midasin > 30 µM | [2] > 30 µM | [3] > 30 µM | [4] > 30 µM | [5] > 30 µM | LIM domain kinase 1 > 30 µM | [6] > 30 µM

COc1cc2c(Oc3ccc4[nH]c(C)cc4c3F)ncnc2cc1OCCCN1CCCC1 [CEDIRANIB]
inactive: Midasin > 30 µM | [2] > 30 µM | [4] > 30 µM | [5] > 30 µM | [6] > 30 µM | [7] > 30 µM

CN(c1ncccc1CNc1nc(Nc2ccc3c(c2)CC(=O)N3)ncc1C(F)(F)F)S(C)(=O)=O [PF-00562271]
inactive: Midasin > 30 µM | [2] > 30 µM | [3] > 30 µM | [4] > 30 µM | [5] > 30 µM | [6] > 30 µM | [7] > 30 µM

C[C@@]1(C(=O)Nc2ccc(F)nc2)CCCN1c1nc(Nc2cc(C3CC3)n[nH]2)c2cccn2n1 [BMS-754807]
inactive: Midasin > 30 µM | [2] > 30 µM | [4] > 30 µM | [5] > 30 µM | [6] > 30 µM | [7] > 30 µM

Reference: ChEMBL document CHEMBL3991601, “The target landscape of clinical kinase drugs” (Science, 2017)
